Assay results from patent US20240383900A1, “SUBSTITUTED PYRAZOLO [1,5-A]PYRIMIDINE-7-AMINE COMPOUNDS AS CDK INHIBITORS AND THEIR THERAPEUTIC USE” (Carrick Therapeutics Limited, priority 2021, published 2024).
Read-outs that look alike come from different tables or passages of the source.

Tests used:
Human CDK7/CycH/MAT1 = Human CDK7/CycH/MAT1 (Homo sapiens (Human), UniProt P50613); assay: Radiometric protein kinase assay (33PanQinase Activity Assay), CDK7; assay type: biochemical; settings: ATP 3 μM
Sequence of Human CDK7/CycH/MAT1 (P50613 whole entry): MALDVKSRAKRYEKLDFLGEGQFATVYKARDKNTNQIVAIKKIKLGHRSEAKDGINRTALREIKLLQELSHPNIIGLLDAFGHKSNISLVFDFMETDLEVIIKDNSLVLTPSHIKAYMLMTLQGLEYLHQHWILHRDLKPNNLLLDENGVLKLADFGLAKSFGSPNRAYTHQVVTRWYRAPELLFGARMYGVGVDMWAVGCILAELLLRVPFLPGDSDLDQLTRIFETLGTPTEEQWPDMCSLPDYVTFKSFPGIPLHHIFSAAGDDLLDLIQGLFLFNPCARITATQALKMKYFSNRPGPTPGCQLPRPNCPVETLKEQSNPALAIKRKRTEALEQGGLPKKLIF
Sequence of Human CDK7/CycH/MAT1 (P51946 whole entry partner): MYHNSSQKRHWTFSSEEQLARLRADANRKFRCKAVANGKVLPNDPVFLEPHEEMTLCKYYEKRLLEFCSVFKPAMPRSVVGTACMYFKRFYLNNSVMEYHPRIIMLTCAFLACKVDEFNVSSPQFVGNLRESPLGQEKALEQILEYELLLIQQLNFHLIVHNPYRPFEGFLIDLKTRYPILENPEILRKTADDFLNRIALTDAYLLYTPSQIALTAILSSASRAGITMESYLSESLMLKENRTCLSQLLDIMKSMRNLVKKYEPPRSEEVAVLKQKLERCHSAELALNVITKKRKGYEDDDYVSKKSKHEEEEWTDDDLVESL
Sequence of Human CDK7/CycH/MAT1 (P51948 whole entry partner): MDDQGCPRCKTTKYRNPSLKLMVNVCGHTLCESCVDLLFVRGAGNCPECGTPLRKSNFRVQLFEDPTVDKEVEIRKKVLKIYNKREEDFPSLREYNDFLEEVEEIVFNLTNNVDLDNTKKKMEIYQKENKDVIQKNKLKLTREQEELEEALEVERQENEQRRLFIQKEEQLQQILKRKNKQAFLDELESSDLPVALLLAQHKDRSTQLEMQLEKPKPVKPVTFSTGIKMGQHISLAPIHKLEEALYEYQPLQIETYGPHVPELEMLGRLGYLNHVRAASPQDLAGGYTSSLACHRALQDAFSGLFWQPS
Protocol: Additionally for the CDK7 assay: • Human CDK7/CycH/MAT1 (ProQinase, 0366-0360-4—Lot 2). • RBER-CHKtide (ProQinase, 0581-0000-5—Lot 106).
(§1) A radiometric protein kinase assay (^33PanQinase® Activity Assay) was used for measuring the kinase activity of the two protein kinases (CDK12/CDK7). All kinase assays were performed in 96-well FlashPlates™ from PerkinElmer (Boston, MA, USA) in a 50 μL reaction volume.
(§2) The reaction cocktail was pipetted in four steps in the following order: • 20 μL of assay buffer (standard buffer) • 5 μL of ATP solution (in H2O) • 5 μL of test compound (in 10% DMSO) • 10 μL of substrate/10 μL of enzyme solution (premixed)
For the CDK7 assay, a reaction mixture (50 μL) containing the following components was prepared: • 70 mM HEPES-NaOH (pH 7.5); • sodium orthovanadate (3 μM); • PEG-20000 (50 μg/mL); • DTT (1.2 mM); • MgCl2 (3 mM); • MnCl2 (3 mM); • purified human CDK7/CycH/MAT1 (3.3 nM—Lot 02); • RBER-CHKtide substrate (40 μg/mL—Lot 106); • ATP (3 μM); • [γ-33P]-ATP (approx. 8×10^5 cpm per well); and • test compound at the appropriate concentration such that the final concentration of DMSO was […].
(§3) The reaction mixture was incubated at 30° C. for 60 min and then stopped by the addition of 2% (v/v) H3PO4. Plates were aspirated and washed two times with 200 μL 0.9% (w/v) NaCl. Incorporation of ^33Pi was determined with a microplate scintillation count (Microbeta, Wallac).
The residual activities for each concentration and the compound IC50 values were calculated using Quattro Workflow V3.1.1 (Quattro Research GmbH, Munich, Germany). The fitting model for the IC50 determinations was “Sigmoidal response (variable slope)” with parameters “top” fixed at 100% and “bottom” at 0%. The fitting method used was a least-squares fit.

Human CDK12 wt/CycK = Human CDK12 wt/CycK (Homo sapiens (Human), UniProt Q9NYV4); assay: Radiometric protein kinase assay (33PanQinase Activity Assay), CDK12; assay type: biochemical; settings: for CDK7/CDK12: ratio of CDK7 IC50 to CDK12 IC50, greater than 1 indicates selectivity for CDK12
Sequence of Human CDK12 wt/CycK (Q9NYV4 whole entry): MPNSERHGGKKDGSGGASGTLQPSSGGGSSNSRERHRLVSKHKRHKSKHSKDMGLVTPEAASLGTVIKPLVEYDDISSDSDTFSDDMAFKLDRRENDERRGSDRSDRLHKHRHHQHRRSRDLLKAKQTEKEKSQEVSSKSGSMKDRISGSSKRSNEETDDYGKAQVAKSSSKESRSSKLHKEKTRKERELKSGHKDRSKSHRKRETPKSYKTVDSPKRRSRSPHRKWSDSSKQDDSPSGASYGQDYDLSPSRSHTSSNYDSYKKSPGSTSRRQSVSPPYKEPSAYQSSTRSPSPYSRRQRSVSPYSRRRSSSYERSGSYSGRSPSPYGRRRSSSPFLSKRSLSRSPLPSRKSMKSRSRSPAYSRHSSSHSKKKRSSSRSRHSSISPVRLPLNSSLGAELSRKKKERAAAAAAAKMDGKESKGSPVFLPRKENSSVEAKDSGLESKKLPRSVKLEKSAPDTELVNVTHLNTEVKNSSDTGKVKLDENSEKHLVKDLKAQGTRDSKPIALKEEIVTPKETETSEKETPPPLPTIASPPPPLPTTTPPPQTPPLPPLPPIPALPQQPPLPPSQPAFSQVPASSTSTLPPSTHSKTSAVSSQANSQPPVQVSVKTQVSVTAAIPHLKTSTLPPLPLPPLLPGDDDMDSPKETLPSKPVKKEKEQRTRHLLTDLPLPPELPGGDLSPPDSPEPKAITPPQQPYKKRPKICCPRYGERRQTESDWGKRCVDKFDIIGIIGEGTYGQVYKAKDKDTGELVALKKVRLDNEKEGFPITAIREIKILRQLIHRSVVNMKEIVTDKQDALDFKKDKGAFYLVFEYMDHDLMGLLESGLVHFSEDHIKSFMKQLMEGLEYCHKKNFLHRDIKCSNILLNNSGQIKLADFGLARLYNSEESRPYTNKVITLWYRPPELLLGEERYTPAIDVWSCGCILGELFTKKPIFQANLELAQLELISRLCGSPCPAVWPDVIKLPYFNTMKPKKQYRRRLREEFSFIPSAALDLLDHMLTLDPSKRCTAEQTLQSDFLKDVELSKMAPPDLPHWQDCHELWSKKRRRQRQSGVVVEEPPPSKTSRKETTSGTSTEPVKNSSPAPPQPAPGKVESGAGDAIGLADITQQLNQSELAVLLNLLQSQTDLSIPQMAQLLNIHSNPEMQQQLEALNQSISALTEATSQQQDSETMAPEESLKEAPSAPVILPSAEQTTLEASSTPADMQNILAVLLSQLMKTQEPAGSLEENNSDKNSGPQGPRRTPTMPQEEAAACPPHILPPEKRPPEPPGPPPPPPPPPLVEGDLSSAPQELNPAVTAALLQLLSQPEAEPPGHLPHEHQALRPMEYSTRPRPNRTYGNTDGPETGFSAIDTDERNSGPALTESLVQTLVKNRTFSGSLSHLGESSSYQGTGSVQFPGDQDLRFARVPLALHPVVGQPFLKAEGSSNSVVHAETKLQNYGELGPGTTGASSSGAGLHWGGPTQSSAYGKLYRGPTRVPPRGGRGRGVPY
Sequence of Human CDK12 wt/CycK (O75909 whole entry partner): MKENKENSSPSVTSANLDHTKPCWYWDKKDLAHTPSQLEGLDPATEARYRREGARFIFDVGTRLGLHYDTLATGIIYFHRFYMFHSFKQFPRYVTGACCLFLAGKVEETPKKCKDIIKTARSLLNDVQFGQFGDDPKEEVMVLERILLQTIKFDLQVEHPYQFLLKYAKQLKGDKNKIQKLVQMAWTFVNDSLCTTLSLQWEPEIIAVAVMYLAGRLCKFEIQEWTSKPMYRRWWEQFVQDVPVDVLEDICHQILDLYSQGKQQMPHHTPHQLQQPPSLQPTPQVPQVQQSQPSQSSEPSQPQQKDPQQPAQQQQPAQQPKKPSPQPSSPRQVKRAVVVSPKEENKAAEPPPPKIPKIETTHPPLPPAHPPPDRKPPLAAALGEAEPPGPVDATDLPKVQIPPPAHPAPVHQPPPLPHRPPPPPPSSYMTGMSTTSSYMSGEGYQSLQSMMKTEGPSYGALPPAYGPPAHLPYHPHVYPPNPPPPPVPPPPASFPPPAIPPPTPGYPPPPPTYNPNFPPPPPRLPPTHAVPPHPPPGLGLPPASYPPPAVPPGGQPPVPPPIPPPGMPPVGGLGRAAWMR
Protocol: as §1, §2, §3
The fitting method used was a least-squares fit.

A673 cells = assay: Cytotoxicity in A673 cells (Cell Titer Glo viability); assay type: cell-based; settings: for Ratio of Biochemical Potency:Cellular Potency: CDK12 IC50 / A673 IC50; for IC50: Homo sapiens
Protocol: Cells were plated in 96-well plates at a density of […] viable cells per well in 200 μL fully supplemented growth medium (DMEM+10% heat inactivated foetal bovine serum) and incubated for 24 hours in standard tissue culture conditions. Compounds, including MLN4924, were solubilised in DMSO and then diluted in fully supplemented growth medium at 2× their final assay concentration such that the final DMSO concentration was 0.1%. Growth medium in the assay plates was replaced with 50 μL of growth medium containing 2×MLN4924 (final assay concentration: 30 nM, where tested) or vehicle only and 50 μL of growth medium containing a 2× compound concentration series or vehicle only such that each compound was at 1× final assay concentration in 100 μL.
Cells were then incubated for 72 hours in standard tissue culture conditions before viability was assessed using 50 μL Cell Titer Glo reagent (Promega) per well and luminescence measured on an EnVision plate reader. Data were normalised to vehicle control (100%) and cells treated with 0.1% Triton x-100 for 1 hour before viability measurement (0%; full cell kill). […] Viability curves generated in the presence of MLN4924 were normalised and fixed to controls treated with MLN4924.

[1] = ATP 0.3 μM, read-out: CDK12 IC50
[2] = read-out: CKD12 Biochemical Potency IC50
[3] = A673, read-out: Cellular Potency IC50 (nM) (in A673 cells)
[4] = A673 cells, 72 hours, read-out: A673 IC50

| SMILES | IC50 (Human CDK7/CycH/MAT1) [nM] | IC50 (Human CDK12 wt/CycK; [1]) [nM] | CDK7/CDK12 (Human CDK12 wt/CycK) | IC50 (Human CDK12 wt/CycK; [2]) [nM] | Ratio of Biochemical Potency:Cellular Potency (A673 cells) | IC50 (A673 cells; [3]) [nM] | IC50 (A673 cells; [4]) [nM] |
| --- | --- | --- | --- | --- | --- | --- | --- |
| OC1CN(c2cc(NCc3ccc(-c4ccccn4)cc3)n3ncc(C4CC4)c3n2)C1 [PPA-052] | > 30000 | 6630 | >4.5 | 6630 | <66.3 | > 100 | > 100 |
| N#Cc1cnn2c(NCc3ccc(-c4ccccc4)cc3)cc(NC[C@H]3CCNC[C@@H]3O)nc12 [PPA-081] | 344 | 57 | 6.0 | 57 | 7.50 | 7.6 | 7.6 |
| F[C@@H]1CNC[C@H]1Oc1cc(NCc2ccc(-c3ccccn3)cc2)n2ncc(C3CC3)c2n1 [PPA-073] | 529 | 33 | 16.0 | 33 | 1.72 | 19.2 | 19.2 |
| Cn1cc(-c2ccccn2)nc1CNc1cc(NC[C@H]2CCNC[C@@H]2O)nc2c(C3CC3)cnn12 [PPA-024] | 17 | 6 | 2.8 | 6 | 0.06 | 96.4 | 96.4 |
| O[C@H]1CNCC[C@@H]1CNc1cc(NCc2ccc(-c3ccccc3)cn2)n2ncc(C3CC3)c2n1 [PPA-034] | 530 | 121 | 4.4 | 121 | 10.71 | 11.3 | 11.3 |
| O[C@H]1CNCC[C@@H]1CNc1cc(NCc2ccc(-c3ccccc3)cc2F)n2ncc(C3CC3)c2n1 [PPA-066] | 912 | 174 | 5.2 | 174 | 7.13 | 24.4 | 24.4 |
| N#Cc1cnn2c(NCc3ccc(-c4ccccn4)cc3)cc(NC[C@H]3CCNC[C@@H]3O)nc12 [PPA-010] | 340 | 36 | 9.4 | 36 | 4.50 | 8 | 8 |
| O[C@H]1CNCC[C@@H]1CNc1cc(NCc2ccc(-c3ncco3)cc2)n2ncc(C3CC3)c2n1 [PPA-031] | 155 | 60 | 2.6 | 60 | 46.15 | 1.3 | 1.3 |
| O[C@H]1CNCC[C@@H]1CNc1cc(NCc2ccc(-c3nccs3)cc2F)n2ncc(C3CC3)c2n1 [PPA-054] | 589 | 49 | 12.0 | 49 | 18.15 | 2.7 | 2.7 |
| O[C@H]1CNCC[C@@H]1CNc1cc(NCc2ccc(-c3ccc(F)cn3)cc2)n2ncc(C3CC3)c2n1 [PPA-019] | 224 | 70 | 3.2 | 70 | 1.34 | 52.4 | 52.4 |
| O[C@H]1CNCC[C@@H]1CNc1cc(NCc2ccc(-c3ncccn3)cc2)n2ncc(C3CC3)c2n1 [PPA-029] | 179 | 63 | 2.8 | 63 | 45.00 | 1.4 | 1.4 |
| CC(C)c1cnn2c(NCc3ccc(-c4ccncc4)cc3)cc(NC[C@H]3CCNC[C@@H]3O)nc12 [PPA-002, (3R,4R)-4-(((3-isopropyl-7-((4-(pyridin-4-yl)benzyl)amino)pyrazolo[1,5-a]pyrimidin-5-yl)amino)methyl)piperidin-3-ol] | 79 | 34 | 2.3 | 34 | 0.27 | 127 | 127 |
| CC(C)c1cnn2c(NCc3ccc(-c4cccnc4)cc3)cc(NC[C@H]3CCNC[C@@H]3O)nc12 [PPA-003, (3R,4R)-4-(((3-isopropyl-7-((4-(pyridin-3-yl)benzyl)amino)pyrazolo[1,5-a]pyrimidin-5-yl)amino)methyl)piperidin-3-ol] | 76 | 47 | 1.6 | 47 | 2.90 | 16.2 | 16.2 |
| CC(C)c1cnn2c(NCc3ccc(-c4ncccn4)cc3)cc(NC[C@H]3CCNC[C@@H]3O)nc12 [PPA-007] | 112 | 51 | 2.2 | 51 | 30.00 | 1.7 | 1.7 |
| O[C@H]1CNCC[C@@H]1CNc1cc(NCc2ccc(-c3cscn3)cc2)n2ncc(C3CC3)c2n1 [PPA-035] | 113 | 52 | 2.2 | 52 | 28.89 | 1.8 | 1.8 |
| O[C@H]1CNCC[C@@H]1CNc1cc(NCc2ccc(-c3ccccc3)nc2)n2ncc(C3CC3)c2n1 [PPA-026] | 164 | 45 | 3.6 | 45 | 3.57 | 12.6 | 12.6 |
| CCc1cnn2c(NCc3ccc(-c4ccccc4)cc3)cc(NC[C@H]3CCNC[C@@H]3O)nc12 [PPA-082] | 125 | 44 | 2.8 | 44 | 4.58 | 9.6 | 9.6 |
| Cc1cc(CNc2cc(NC[C@H]3CCNC[C@@H]3O)nc3c(C(C)C)cnn23)ccc1-c1ccccn1 [PPA-011] | 153 | 160 | 1.0 | 160 | 2.32 | 69 | 69 |
